Measured values reported in publication PMC3685270 (Clinical pharmacology and therapeutics, 2011).
In brackets after ≈: the same amount, converted by molar mass. Entries after “also recorded” stand apart in the source; their conditions may differ. Like-named read-outs stand apart in the source and are kept apart here.

Columns and labels:
[1] = system: Pgp at the human BBB; assay: [^11C]-N-desmethyl-loperamide PET after tariquidar in healthy human subjects; format: in vivo; details: humans, without tariquidar
[2] = system: P-glycoprotein (Pgp) at the blood-brain barrier; details: cited from earlier work
[3] = biological target: T1, P-glycoprotein (Pgp) at the blood-brain barrier (Homo sapiens, UniProt P08183); details: (R)-[^11C]verapamil whole brain, tariquidar 2 mg/kg, n=5, cited from earlier work
[4] = previous studies (human and rat); cited from earlier work
[5] = Safety monitoring / adverse events after tariquidar infusion; format: in vivo, human; details: for Tolerability: healthy subjects, 3, 4, 6 and 8 mg/kg i.v. infusion
[6] = format: in vivo, human; details: humans, maximum administered dose 8 mg/kg
[7] = system: Pgp in CD56-positive lymphocytes; details: single i.v. dose of 2 mg/kg, over 24 h; cited from earlier work
[8] = biological target: T1, P-glycoprotein (Pgp) at the blood-brain barrier; format: in vivo; details: for EC50: tariquidar plasma concentration at end of PET scan
[9] = humans; cited from earlier work
[10] = system: breast cancer resistance protein (BCRP, ABCG2); details: cited from earlier work
[11] = system: Pgp at the human BBB; details: 2 mg/kg dose; cited from earlier work
[12] = Unmetabolized; format: in vivo, human; details: AUC 0-40 min, different tariquidar doses vs 0 mg/kg
[13] = rats, bolus administration of 30 mg/kg; cited from earlier work
[14] = rat, tariquidar plasma concentration at end of PET scan, 0-60 min

T1 sequence (P08183 whole entry): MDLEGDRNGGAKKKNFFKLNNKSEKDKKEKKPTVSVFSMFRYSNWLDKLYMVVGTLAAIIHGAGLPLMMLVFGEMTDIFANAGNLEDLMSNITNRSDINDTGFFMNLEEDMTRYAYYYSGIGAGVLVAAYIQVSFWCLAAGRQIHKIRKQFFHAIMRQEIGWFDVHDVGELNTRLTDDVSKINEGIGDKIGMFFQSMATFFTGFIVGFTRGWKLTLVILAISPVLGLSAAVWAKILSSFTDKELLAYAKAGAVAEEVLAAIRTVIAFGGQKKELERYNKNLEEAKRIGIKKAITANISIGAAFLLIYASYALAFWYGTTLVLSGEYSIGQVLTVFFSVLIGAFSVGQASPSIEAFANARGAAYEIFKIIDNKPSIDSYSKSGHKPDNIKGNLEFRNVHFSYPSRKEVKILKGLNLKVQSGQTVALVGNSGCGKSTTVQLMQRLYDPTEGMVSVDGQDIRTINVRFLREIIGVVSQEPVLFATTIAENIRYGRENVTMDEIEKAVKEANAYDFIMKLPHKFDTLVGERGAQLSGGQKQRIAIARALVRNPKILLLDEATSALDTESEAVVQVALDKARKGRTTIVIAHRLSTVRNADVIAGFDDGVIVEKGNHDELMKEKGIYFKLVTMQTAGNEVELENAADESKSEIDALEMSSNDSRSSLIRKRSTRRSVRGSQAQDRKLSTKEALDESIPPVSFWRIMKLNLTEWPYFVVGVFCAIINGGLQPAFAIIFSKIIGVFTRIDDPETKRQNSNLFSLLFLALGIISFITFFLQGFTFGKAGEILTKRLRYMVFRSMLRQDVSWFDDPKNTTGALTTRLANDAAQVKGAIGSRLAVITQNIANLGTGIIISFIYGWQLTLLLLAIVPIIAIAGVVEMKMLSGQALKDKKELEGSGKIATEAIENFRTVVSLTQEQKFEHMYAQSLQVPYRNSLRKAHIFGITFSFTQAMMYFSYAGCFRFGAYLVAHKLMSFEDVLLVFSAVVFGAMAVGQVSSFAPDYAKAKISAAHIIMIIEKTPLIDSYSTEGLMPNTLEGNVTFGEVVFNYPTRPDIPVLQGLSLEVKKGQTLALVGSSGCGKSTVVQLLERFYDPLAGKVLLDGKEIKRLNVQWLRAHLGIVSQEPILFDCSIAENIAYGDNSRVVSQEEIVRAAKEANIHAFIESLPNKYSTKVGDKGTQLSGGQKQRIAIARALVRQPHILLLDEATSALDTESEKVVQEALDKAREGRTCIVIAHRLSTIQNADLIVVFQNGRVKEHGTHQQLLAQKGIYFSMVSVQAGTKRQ

For `CNC(=O)C(CCN1CCC(O)(c2ccc(Cl)cc2)CC1)(c1ccccc1)c1ccccc1` [[^11C]-N-desmethyl-loperamide], the “Baseline brain uptake lower as compared to (R)-[^11C]verapamil” value [1] was 2 fold.
For `COc1cc2c(cc1OC)CN(CCc1ccc(NC(=O)c3cc(OC)c(OC)cc3NC(=O)c3cnc4ccccc4c3)cc1)CC2` [tariquidar], the “EC50, K1–K1 baseline (2T4K)” value [2, 14] is given as 0.441 ± 0.081 µg/mL (≈ 0.682 µM), the “EC50, VT–VT baseline (2T4K)” value [2, 14] is given as 0.544 ± 0.032 µg/mL (≈ 0.841 µM) and the “Tariquidar plasma concentration at which brain VT approached plateau levels” value ([2]; rats) is given as > 1,000 ng/mL. For the same molecule, the “K1 (1T2K)” value ([3]; 0-10 min) was 0.051±0.006 (6) mL·mL^−1·min^−1, the “K1 (2T4K)” value ([3]; 0-40 min) was 0.051±0.008 (11) mL·mL^−1·min^−1 and the “VT (2T4K)” value ([3]; 0-40 min) was 0.788±0.087 (2) mL·mL^−1. For the same molecule, the “k2 (2T4K)” value ([3]; 0-40 min) was 0.123±0.052 (57) min^−1, the “k3 (2T4K)” value ([3]; 0-40 min) was 0.156±0.080 (123) min^−1 and the “k4 (2T4K)” value ([3]; 0-40 min) was 0.191±0.063 (42) min^−1. The “Effect of tariquidar on degree of plasma protein binding of (R)-[^11C]verapamil” value [4] was “does not influence”, the Hypotension adverse event ([5]; 8 mg/kg group, infusion stopped 20 min prematurely (7.2 mg/kg administered)) was “one case of moderate hypotension” and the Tolerability [5] was “well tolerated at doses 4-times the clinically tried”. For the same molecule, the Tolerability ([5]; listed as Tariquidar) was “generally well tolerated”, the “Dysgeusia (relationship with study drug could not be excluded)” value ([5]; healthy subjects, 3-8 mg/kg) was 6 out of 20 and the “Vertigo (relationship with study drug could not be excluded)” value ([5]; healthy subjects, 3-8 mg/kg, 20 subjects) was 3 subjects. The “Tariquidar plasma concentration at time of PET” value [6] was “up to 1,312 ng/mL”, the “Block of Pgp in CD56-positive lymphocytes” value [7] was 100% and the EC50 ([8]; EC50, K1–K1 baseline (1T2K), human, 0-10 min) was 806 nM. The EC50 ([8]; EC50, K1–K1 baseline (2T4K), human, 0-40 min) was 813 nM, the EC50 ([8]; EC50, VT–VT baseline (2T4K), human, 0-40 min) was 867 nM and the “n (Hill coefficient), K1–K1 baseline (1T2K)” value ([8]; human, 0-10 min) was 6.2±3.5. For the same molecule, the “n (Hill coefficient), K1–K1 baseline (2T4K)” value ([8]; human, 0-40 min) was 6.3±3.5, the “n (Hill coefficient), VT–VT baseline (2T4K)” value ([8]; human, 0-40 min) was 11.3±5.4 and the “Tariquidar plasma concentration at which brain VT approached plateau levels” value ([8]; humans) was > 1,000 ng/mL. The “Terminal elimination half-life from plasma” value [9] was 13 to 23 h, the “Inhibition of BCRP” value [10] was “inhibits” and the “Increase in brain penetration of [^11C]-N-desmethyl-loperamide” value [11] was 25%. For the same molecule, the “Effect on concentration of unmetabolized (R)-[^11C]verapamil in plasma” value [12] was “lacked pharmacokinetic interactions; also recorded: did not affect” and the “Tariquidar plasma concentration at the time of the PET scan” value [13] was “up to 7,000 ng/mL”.
